Reference: ChEMBL document CHEMBL5604063, “ASAP - DENV-2 NS2B-NS3 protease fluorescence dose response” (2024)
Several values for one entry are separate records, joined by “and”; a condition that tells them apart may be missing. Identical values can stand only once.

Tests used:
Genome polyprotein [1] = molecular target: T1, Genome polyprotein (dengue virus type 2, UniProt P29990); type: functional, Thailand/16681/1984
Genome polyprotein [2] = molecular target: T1, Genome polyprotein; type: functional, Thailand/16681/1984; remark: listed apart in the source

T1 sequence (P29990 1346-1475 limits assumed): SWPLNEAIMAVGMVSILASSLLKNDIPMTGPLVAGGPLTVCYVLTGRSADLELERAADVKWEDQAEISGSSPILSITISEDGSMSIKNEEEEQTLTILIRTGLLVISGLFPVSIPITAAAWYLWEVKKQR
T1 sequence (P29990 1476-2093 limits assumed): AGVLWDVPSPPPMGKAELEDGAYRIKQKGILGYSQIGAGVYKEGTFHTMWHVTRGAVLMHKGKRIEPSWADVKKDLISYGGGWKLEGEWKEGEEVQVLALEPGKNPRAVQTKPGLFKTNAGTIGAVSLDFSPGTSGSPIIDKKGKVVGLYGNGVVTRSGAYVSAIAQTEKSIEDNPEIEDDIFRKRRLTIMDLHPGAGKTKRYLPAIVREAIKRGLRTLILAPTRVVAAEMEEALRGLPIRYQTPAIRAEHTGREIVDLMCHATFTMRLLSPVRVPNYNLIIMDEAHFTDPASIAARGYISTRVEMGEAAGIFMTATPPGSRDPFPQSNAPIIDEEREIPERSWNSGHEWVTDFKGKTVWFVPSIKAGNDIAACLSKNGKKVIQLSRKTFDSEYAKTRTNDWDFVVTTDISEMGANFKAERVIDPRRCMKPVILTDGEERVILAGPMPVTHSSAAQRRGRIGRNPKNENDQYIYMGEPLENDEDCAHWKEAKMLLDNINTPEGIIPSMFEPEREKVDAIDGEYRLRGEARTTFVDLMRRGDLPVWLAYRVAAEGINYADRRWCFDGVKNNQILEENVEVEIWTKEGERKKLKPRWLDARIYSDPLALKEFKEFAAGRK

SMILES | IC50 (Genome polyprotein [1]) | IC50 (Genome polyprotein [2])
Cc1c(C(=O)Nc2cc(C(=O)N[C@H]3CNC(=O)C3)ccn2)cc(C2CC2)n1C | > 99.5 µM | > 100 µM
O=C(Nc1cc(-c2cccnc2)ccn1)c1cc2n(n1)CCO2 | > 99.5 µM | > 100 µM
O=C(O)Cc1cn2nc(-c3cc(Cl)cc(NC(=O)OCc4ccccc4)c3)ccc2n1 | > 99.5 µM | > 100 µM
Cc1c(C(=O)Nc2ccc3c(c2)C[C@H](C(N)=O)O3)cc(C2CC2)n1C | > 99.5 µM | > 100 µM
CC(=O)Nc1cc(Cl)cc(C(=O)Nc2cccc(CN)c2)c1 | > 99.5 µM | > 100 µM
CCc1ccc(-c2nc3c(C(=O)Nc4ccc5c(c4)CNC5)cc(Cl)cc3[nH]2)cc1 | 21.5 µM | 42.9 µM
Cc1ccc(S(=O)(=O)N2CCC([C@@H](NC(=O)OCc3ccccc3)C(=O)Nc3cccc(CN)c3)CC2)c(C)c1 | > 99.5 µM | > 100 µM
O=C(Nc1ccc2c(c1)CNC2)c1cc(F)cc(-c2ccc3c(=O)[nH]ncc3c2)c1 | 25 µM and 22.8 µM | 36 µM and 33.9 µM
O=C(NCCCn1ccnc1)[C@H](Nc1ccc2c(c1)CNC2)c1cc(Cl)cc(C2CC2)c1 | > 99.5 µM | > 100 µM
O=C(Nc1ccc2c(c1)CNC2)c1cnnc2ccccc12 | > 99.5 µM | > 100 µM
O=C(O)c1cc2cccc(Cc3c[nH]c4ccc(Cl)cc34)c2[nH]1 | 52.1 µM | 21.6 µM
NCCc1cccc(NC(=O)c2cccc3c2CC(=O)N3)c1 | > 99.5 µM | > 100 µM
CCOc1cccc(-c2cccc(NC(=O)c3cc(C4CC4)n(C)c3C)n2)c1 | > 99.5 µM | > 100 µM
CS(=O)(=O)NC(=O)C[C@H]1NCc2cc(NC(=O)c3cc(Cl)cc4[nH]ncc34)ccc21 | > 296 µM | > 300 µM
c1cc([C@@H]2C[C@H]2c2ccc3c(c2)CNC3)c2cn[nH]c2c1 | > 99.5 µM | > 100 µM
Cc1c(C(=O)Nc2cc(CCCN)ccn2)cc(C(C)C)n1C | > 99.5 µM | > 100 µM
O=C1CCc2cc(C(=O)Nc3ccc4c(c3)CNC4)cc(F)c2N1 | > 99.5 µM | > 100 µM
O=C(Nc1ccc2c(c1)CNC2)c1cc(Cl)cc2[nH]c(-c3cccc(F)c3)nc12 | 2.64 µM | 17.4 µM and 12.8 µM
CSCCNC(=O)[C@H](Nc1ccc2c(c1)CNC2)c1cc(Cl)cc(C2CC2)c1 | > 99.5 µM | > 100 µM
Brc1csc(CNCCc2nnc[nH]2)c1 | > 99.5 µM | > 100 µM

SMILES | IC50 (Genome polyprotein [1]) | IC50 (Genome polyprotein [2])
O=S(=O)(Nc1cccc(-c2nnn[nH]2)c1)c1cc(Cl)cc(-c2ccccc2)c1 | 35.8 µM | 16.4 µM and 28.4 µM
O=C(Nc1ccc2c(c1)CNC2)c1cccc2[nH]c(=O)[nH]c12 | > 99.5 µM | 65.3 µM
NCc1cccc(NC(=O)c2cc(C3CC3)nc3c(Cl)cnn23)c1 | > 99.5 µM | > 100 µM
NCc1cccc(NC(=O)c2cc(Cl)cc(Cl)c2OCc2ccccc2)c1 | 44.7 µM | 42.6 µM
C#C[C@H](Nc1cc([C@H]2CCOC2)ccn1)c1cc(C2CC2)n(C)n1 | > 99.5 µM | > 100 µM
O=C(Nc1ccc2c(c1)CNC2)c1cc(Br)cc2[nH]c(C3CCOCC3)nc12 | > 99.5 µM | > 100 µM
CCO[C@@H]1CC[C@H]1NC(=O)c1cccc2c1CC(=O)N2 | > 99.5 µM | > 100 µM
CN(C)C(=O)c1cc(CN)cc([C@@H]2C[C@H]2c2cc(Cl)cc(NC(=O)OCc3ccccc3)c2)c1 | 31.6 µM | > 100 µM
NCc1cccc(NC(=O)c2cc(CO)cc(NC(=O)OCc3ccccc3)c2)c1 | > 99.5 µM | > 100 µM
CNC(=O)[C@H](Nc1ccc2c(c1)CNC2)c1cc(Cl)cc2[nH]c(-c3ccccc3)nc12 | 49.6 µM | 21.2 µM and 23.2 µM
CC(C)n1cnc2cc(C(=O)Nc3ccc4c(c3)CNC4)ccc21 | > 99.5 µM | > 100 µM
NCc1cccc(NC(=O)c2ccc(F)c(NC(=O)OCc3ccccc3)c2F)c1 | > 99.5 µM | > 100 µM
O=C(Nc1cc(Cl)cc(C(=O)NCc2n[nH]c3c2CNCC3)c1)OCc1ccccc1 | > 99.5 µM | > 100 µM
Cc1nn(C)c(C)c1[C@H]1CCCN1C(=O)Nc1ccc2c(c1)CNC2 | > 99.5 µM | > 100 µM
CCn1ncc(-c2noc3nc(C)cc(C(=O)Nc4cccc(CN)c4)c23)c1C | > 99.5 µM | > 100 µM
CC(C)COc1ccc(Cl)cc1C(=O)Nc1ccc2c(c1)CNC2 | > 99.5 µM | > 100 µM
NCc1cccc(NC(=O)[C@H](NC(=O)OCc2ccccc2)C2CCN(Cc3ccccn3)CC2)c1 | > 99.5 µM | > 100 µM
CC(=O)Nc1cccc(C(=O)Nc2ccc3c(c2)CNC3)c1 | > 99.5 µM | > 100 µM
Cc1c(C(=O)Nc2cc(-c3cccnc3)ccn2)cc(C2CCCCC2)n1C | > 99.5 µM | > 100 µM
COC(=O)c1cc(Br)cc2c(Cc3ccc(-c4nnn[nH]4)cc3)c[nH]c12 | 20.3 µM | 13.6 µM

SMILES | IC50 (Genome polyprotein [1]) | IC50 (Genome polyprotein [2])
NCc1cccc(NC(=O)c2cc(Br)cc(-n3cnnn3)c2)c1 | > 99.5 µM | > 100 µM
CNC(=O)[C@]1(Nc2ccc3c(c2)CNC3)CCc2ccc(Cl)cc21 | > 99.5 µM | > 100 µM
NCc1cccc(NC(=O)[C@H](NC(=O)OCc2ccccc2)C2CCN(Cc3ccccc3)CC2)c1 | > 99.5 µM | > 100 µM
O=C1Cc2c(cccc2C(=O)N[C@H]2CCC[C@@H](C(=O)NC3CC3)C2)N1 | > 99.5 µM | > 100 µM
CCS(=O)(=O)c1ccc(Cl)cc1C(=O)Nc1ccc2c(c1)CNC2 | > 99.5 µM | > 100 µM
O=C1Cc2c(cccc2C(=O)Nc2cccc(-c3cn[nH]c3)c2)N1 | > 99.5 µM | > 100 µM
O=C1Cc2c(cccc2C(=O)N[C@H]2CC[C@H](OC3CCCC3)CC2)N1 | > 99.5 µM | > 100 µM
O=C(Nc1cc(Cl)cc(C(=O)NC[C@H]2CNC3(CC3)CO2)c1)OCc1ccccc1 | > 99.5 µM | > 100 µM
O=C(O)C1CCC2(CC1)CC(Cc1c[nH]c3ccc(Cl)cc13)C2 (stereo not given) | 59.2 µM | 31.4 µM
NC[C@H]1CC[C@H](NC(=O)c2cc(Cl)cc3[nH]ncc23)CC1 | > 99.5 µM | > 100 µM
O=C(Nc1ccc2c(c1)CNC2)c1cc(Cl)cc2[nH]c(CN3CCCC3=O)cc12 | > 99.5 µM | > 100 µM
CCOC(=O)[C@H]1[C@H](c2cc(Cl)cc(NC(=O)OCc3ccccc3)c2)[C@H]1c1cccc(-c2nnn[nH]2)c1 | 13.1 µM | 13.9 µM
O=C(Nc1ccc2c(c1)CNC2)c1cc(Cl)cc2[nH]c(-c3cnccc3O)nc12 | 37.1 µM | > 100 µM
Cc1nc(-c2ccc(Cl)cc2)sc1C(=O)Nc1cccc(CN)c1 | > 99.5 µM | > 100 µM
Cc1cnc([C@H]2CCCN(C(=O)Nc3ccc4c(c3)CNC4)C2)s1 | > 99.5 µM | > 100 µM
NCc1ccc(F)c(NC(=O)c2cc(Cl)cc(NC(=O)OCc3ccccc3)c2)c1 | > 99.5 µM | > 100 µM
O=C1CCCc2cc(C(=O)Nc3ccc4c(c3)CNC4)ccc2N1 | > 99.5 µM | > 100 µM
C[C@H]1Oc2c(cccc2C(=O)Nc2ccc3c(c2)CNC3)NC1=O | 89.3 µM | 90.4 µM
Cn1nc(C(F)(F)F)cc1C(=O)Nc1cc(-c2cccnc2)ccn1 | > 99.5 µM | > 100 µM
NCc1ccc(O)c(NC(=O)c2cc(Cl)cc(NC(=O)OCc3ccccc3)c2)c1 | 74.5 µM | > 100 µM
